Measurements as given in patent US20240091172A1, “DRUG FOR ANTAGONIZING REPLICATION OF PORCINE REPRODUCTIVE AND RESPIRATORY SYNDROME VIRUS AND APPLICATION THEREOF” (NANJING AGRICULTURAL UNIVERSITY, priority 2019, published 2024).

Experiments:
PRRSV [1] = experiment: Natural product drug library screening, PRRSV infection of Marc-145 cells; format: cell-based, porcine reproductive and respiratory syndrome virus; details: for inhibitory effects on PRRSV: second round hits
Procedure: Marc-145 cells were treated with 10 μM of natural products and then infected with PRRSV. In the first round of screening, 24 compounds (6.21%) had no obvious cytotoxicity to Marc-145 cells and could reduce PRRSV-induced CPE by 50% (FIG. 1A).

PRRSV [2] = experiment: Anti-PRRSV activity of xanthohumol derivatives on Marc-145; format: cell-based, porcine reproductive and respiratory syndrome virus
Marc-145 cells = experiment: Cytotoxicity to Marc-145 cells (CCK8, CC50); format: cell-based
Procedure: (§1) Cell viability was detected with the enhanced CCK8 kit. The concentration (CC50) at which Xn was cytotoxic to 50% of the cells was calculated using GraphPad Prism 7.0 software. DMSO was used as a negative control.
(§2) Further, the inhibitory efficiency of Xn on PRRSV in Marc145 cells was detected by indirect immunofluorescence. […] To further determine the dose range of Xn with the anti-PRRSV activity, Marc-145 cells were treated with 5 μM, 10 μM, and 15 μM Xn respectively, and then infected with PRRSV (0.01 MOI).

PRRSV BB0907 strain = experiment: Piglet treatment experiment after PRRSV infection; format: in vivo, piglets; details: for virus level in the serum vs virus-infected positive control group: 4-14 dpi
PRRSV [3] = experiment: IC50 against PRRSV in PAMs by immunofluorescence; format: cell-based; details: Porcine reproductive and respiratory syndrome virus; PAMs cells
Procedure: (§3) Xn of different concentrations was added to a PAMs medium (1-30 μM), and a DMSO negative control group was set up. Cells were inoculated with PRRSV (0.01 MOI) and incubated at 37° C. for 30 h, and the cell supernatant was pipetted and discarded. The cells were fixed with 4% (volume ratio) paraformaldehyde for 15 min, permeabilized with 0.1% (volume ratio) Triton X-100 for 30 min, and washed 3 times with PBS for 3 min each time. A PRRSV N protein monoclonal antibody (2H7) at a dilution of 1:1000 was added, and the cells were incubated at 37° C. for 1 h, and washed 3 times with PBST for 3 min each time. Alexa Fluor 594 goat anti-mouse IgG at a dilution of 1:1000 was added, and the cells were incubated at 37° C. for 45 min. The nuclei were stained with DAPI for 10 min at room temperature. Three photos were recorded randomly with a Nikon A1 confocal microscope. The fluorescence intensity was measured by ImageJ software. Finally, the 50% inhibitory concentration (IC50) of Xn against PRRSV was calculated by GraphPad Prism 7.0 software, and the results were recorded.

PRRSV [4] = experiment: PRRSV replication in Marc-145 cells (TCID50, ORF7 mRNA, CPE/IFA, Western blot); format: cell-based, porcine reproductive and respiratory syndrome virus
Procedure: (§4) Marc-145 cells were cultured in a 96-well plate. When the cell confluence reached 70%, a nutrient solution was pipetted and discarded, and the cell surface was washed 3 times with PBS. Ten-fold serially diluted PRRSV was added to the cells and the cells were incubated at 37° C. for 1 h. The medium was replaced with fresh 2% FBS-DMEM. Virus titers were determined 5 days post-inoculation (dpi) using end-point dilution analysis. The 50% cell infectious dose (TCID50) was calculated by the Reed-Muench method.
(§5) Cellular RNAs were extracted following the operation instructions of an OMEGA RNA virus extraction kit. […] Relative fluorescence quantification was performed after reverse transcription, and the primer sequences used were as follows:
(§6) According to the method of 2-ΔΔCt, the relative content of mRNA of each gene in a sample was calculated with a CT value.
as §2

[5] = Cytotoxicity (CC50) in PAMs cells; format: cell-based, porcine; details: pig
[6] = Cytotoxicity to Marc-145 cells (CCK8, CC50); format: cell-based; details: African green monkey, Marc-145 cells; Marc145 cells, CCK8 cytotoxicity assay
Procedure: as §1, §2

[7] = system: IL-1β, IL-6, IL-8 and TNF-α mRNA; experiment: PRRSV- or LPS-induced inflammatory reaction in Marc-145 cells (qRT-PCR); format: cell-based
Procedure: as §5, §6
(§7) Marc-145 cells and PAM cells were inoculated with 0.1 MOI PRRSV and incubated at 37° C. for 1 h. The nutrient solution was replaced with DMEM-2% FBS containing Xn (or DMSO), and 24 h post infection, cellular RNAs were extracted. A positive control group was set up: Marc-145 cells and PAMs were treated with 10 μg/mL LPS (or DMEM) for 1 h; the cell surface was washed 3 times with PBS; 2% FBS-DMEM containing Xn (or DMSO) was added; and after 6 h, the cells were collected, RNAs were extracted, and the mRNA levels of IL-1β, IL-6, IL-8 and TNF-α were detected by qRT-PCR. The results are shown in FIG. 6 (Marc-145) and FIG. 7 (PAM cells).

[8] = system: IL-1β, IL-6, IL-8 and TNF-α mRNA; experiment: PRRSV- or LPS-induced inflammatory reaction in PAM cells (qRT-PCR); format: cell-based, porcine
Procedure: as §5, §6, §7

PRRSV [9] = experiment: IC50 against PRRSV in Marc145 cells by indirect immunofluorescence; format: cell-based; details: Porcine reproductive and respiratory syndrome virus
Procedure: as §3, §2

PRRSV [10] = experiment: PRRSV replication in PAM cells (N protein, ORF7 mRNA, titer, different strains); format: cell-based, porcine reproductive and respiratory syndrome virus
Procedure: as §4, §5
The results are shown in FIGS. 4A-D. In PAM, Xn could inhibit the replication of different genetic subtypes of PRRSV strains in the viral ORF7 gene and protein levels, and reduce the viral infection titer.

PRRSV [11] = experiment: Stage experiment of drug (pre-, co-, post-treatment) in PAMs; format: cell-based, porcine reproductive and respiratory syndrome virus; details: 24 hpi
Procedure: Xn treatment time and PRRSV infection time are shown on the timeline in FIG. 5A. PAMs were inoculated into a 24-well plate, and after complete sedimentation, the time was set as −1 h. 10 μM Xn was added to a pretreatment group (Pre) at −1 h; and at 0 h; cells were inoculated 0.1 moi PRRSV and incubated at 37° C. for 1 h; the virus-containing cell culture was replaced with 2% FBS-DMEM; and the cells were cultured at 37° C. for 24 h. Xn was added to the cells in a co-treatment group (Co) at 0 h; the cells were inoculated with 0.1 moi PRRSV, and incubated at 37° C. for 1 h; the virus-containing cell culture was replaced with 2% FBS-DMEM; and the cells were cultured at 37° C. for 24 h. A post-treatment group (Post) was inoculated with 0.1 moi PRRSV at 0 h; the culture was discarded at 1 h and replaced with 2% FBS-DMEM containing 10 μM Xn; and the cells were cultured at 37° C. for 24 h.
PAMs were treated with Xn before, during and after PRRSV infection (FIG. 5A). Cell samples were collected at 24 hpi for detection of PRRSV N protein and PRRSV ORF7 mRNA by Western blot and qRT-PCR respectively, and the cell supernatant was collected for virus titer determination.

[12] = Marc-145, 5, 10, 15 μM Xn, 0.01 MOI, 24, 36, 48 hpi
[13] = PAM cells, dose-dependent manner

## COc1cc(/C=C/C(=O)CC(=O)/C=C/c2ccc(O)c(OC)c2)ccc1O [curcumin]
PRRSV [1]
  inhibitory effects on PRRSV: dose-dependent inhibitory effects

## Oc1c(Cl)cc(Cl)c2cccnc12 [chloroxine, reference compound]
PRRSV [1]
  inhibitory effects on PRRSV: dose-dependent inhibitory effects

## COc1cc(O)cc(O)c1C(=O)/C=C/c1cccc([N+](=O)[O-])c1 [Xn-5]
PRRSV [2]; low concentrations
  antiviral ability: did not have antiviral ability
Marc-145 cells; low concentrations
  cytotoxicity: highly cytotoxic

## COc1cc(O)c(C(=O)/C=C/c2ccc(O)cc2)c(OC)c1 [Xn-4]
PRRSV [2]; 0-50 uM
  anti-PRRSV activity on Marc-145: inhibitory effects
PRRSV [2]; 0-50 uM, Marc-145
  anti-PRRSV effect, ranking among the three compounds: best effect
PRRSV [2]; Marc-145
  concentration with an obvious antiviral effect: 15 µM
PRRSV BB0907 strain; 10 mg/kg intramuscular, 5 per group, death at 10 dpi
  pigs died: 1
PRRSV BB0907 strain; 10 mg/kg intramuscular, 14 days post infection
  rectal temperature of the piglets: increased
PRRSV BB0907 strain; 10 mg/kg, P<0.05
  virus level in the serum vs virus-infected positive control group: significantly lower
PRRSV BB0907 strain; 10 mg/kg, 14 dpi, P<0.05
  lung pathological change scores vs positive control group: significantly lower
PRRSV BB0907 strain; 20 mg/kg intramuscular, days 0-14
  clinical fever and clinical symptoms: no clinical fever or obvious clinical symptoms
PRRSV BB0907 strain; 20 mg/kg intramuscular, during the experiment
  survival: all were healthy and alive
PRRSV BB0907 strain; 20 mg/kg, 4-10 dpi
  copy number of the PRRSV genome in the nasal swabs vs positive control group: significantly lower
PRRSV BB0907 strain; 20 mg/kg, P<0.05
  virus level in the serum vs virus-infected positive control group: significantly lower
PRRSV BB0907 strain; 20 mg/kg, 14 dpi, P<0.05
  PRRSV viral load in the lungs vs control group: significantly lower
  lung pathological change scores vs positive control group: significantly lower
PRRSV BB0907 strain; 5, 10, 20 mg/kg, qRT-PCR
  inflammatory factors IL-1β, IL-6, IL-8 and TNF-α mRNA in the lung tissue: decreased in a dose-dependent manner

## COc1cc(O)c(CC=C(C)C)c(O)c1C(=O)/C=C/c1ccc(O)cc1 [Xn, xanthohumol]
PRRSV [3]
  IC50: 7.05 µM
PRRSV [4]; Marc-145
  replication of the three PRRSV strains (Western blot): effectively reduce
PRRSV [4]; Marc-145, 48 hpi
  number of infected cells (CPE and IFA) vs negative control group: significantly less
PRRSV [4]; [12]
  ORF7 mRNA level: dose-dependent decrease
  viral titers (TCID50 of PRRSV): dose-dependent decrease
[5]
  CC50: 42.6 µM
PRRSV [1]
  IC50, comparison among the 5 screened compounds: lowest
  selectivity index, comparison among the 5 screened compounds: highest
  inhibitory effects on PRRSV: dose-dependent inhibitory effects
[6]
  CC50 at 48 h: 62.5 µM
Marc-145 cells; Marc-145 cells
  CC50, comparison among the 5 screened compounds: highest
[7]; Marc-145, 10 μg/mL LPS, 6 h, dose-dependent
  mRNA expressions of IL-1β, IL-6, IL-8 and TNF-α induced by LPS: effectively reduce
[7]; Marc-145, 0.1 MOI PRRSV, 24 h post infection, dose-dependent
  mRNA expressions of IL-1β, IL-6, IL-8 and TNF-α induced by PRRSV: effectively reduce
[7]; Marc-145, Xn alone
  intracellular inflammatory factors, Xn control treatment: did not cause changes
[8]; 10 μg/mL LPS, 6 h, dose-dependent
  mRNA expressions of IL-1β, IL-6, IL-8 and TNF-α induced by LPS: effectively reduce
[8]; 0.1 MOI PRRSV, 24 h post infection, dose-dependent
  mRNA expressions of IL-1β, IL-6, IL-8 and TNF-α induced by PRRSV: effectively reduce
[8]; Xn alone
  intracellular inflammatory factors, Xn control treatment: did not cause changes
PRRSV [9]
  IC50: 2.37 µM
PRRSV [10]; PAM
  replication of different genetic subtypes of PRRSV strains (ORF7 gene and protein levels): inhibit
PRRSV [10]; [13]
  level of PRRSV N protein: decreased
  level of viral mRNA: decreased
PRRSV [10]; PAM, different genetic subtypes of PRRSV strains
  viral infection titer: reduce
PRRSV [11]; 10 μM Xn co-treatment (Co)
  level of PRRSV replication (N protein, ORF7 mRNA, virus titer): inhibited the virus to a lower degree
PRRSV [11]; 10 μM Xn post virus infection (Post)
  level of PRRSV replication (N protein, ORF7 mRNA, virus titer): significantly reduced
PRRSV [11]; 10 μM Xn pretreatment (Pre)
  level of PRRSV replication (N protein, ORF7 mRNA, virus titer): inhibited the virus to a lower degree

## COc1cc(OC)c(C(=O)/C=C/c2ccc(O)cc2)c(OC)c1 [Xn-2]
PRRSV [2]; 0-50 uM
  anti-PRRSV activity on Marc-145: inhibitory effects
